Measured values reported in the NIST ThermoML archive (doi:10.1021/acs.jced.7b00297).
Numbers after ± are expanded uncertainties.

What was measured:
[1] = 298.15 K; 101.33 kPa; Liquid; Vibrating tube method
[2] = mn = molality of the nth substance listed, in mol/kg; details: 84.5 kPa, Liquid; for speed of sound: Single path-length method; for mass density: Vibrating tube method

## CCCCn1cc[n+](C)c1.O=S(=O)([O-])C(F)(F)F [1-butyl-3-methylimidazolium trifluoromethanesulfonate]
[1]
  mass density: 1297.84 ± 5.4 kg/m3

## CCCCCCn1cc[n+](C)c1.[Cl-] [1-hexyl-3-methylimidazolium chloride]
[1]
  mass density: 1042.86 ± 4.3 kg/m3

## CCCCn1cc[n+](C)c1.[Cl-] [1-butyl-3-methylimidazolium chloride] + O
[2]; 288.15 K, m1 = 0.0344
  speed of sound: 1472 ± 1 m/s
  mass density: 999.577 ± 4 kg/m3
[2]; 288.15 K, m1 = 0.0526
  speed of sound: 1474.7 ± 1 m/s
  mass density: 999.828 ± 4 kg/m3
[2]; 288.15 K, m1 = 0.0926
  speed of sound: 1480.8 ± 1 m/s
  mass density: 1000.37 ± 4 kg/m3
[2]; 288.15 K, m1 = 0.1181
  speed of sound: 1485 ± 1 m/s
  mass density: 1000.72 ± 4 kg/m3
[2]; 288.15 K, m1 = 0.1806
  speed of sound: 1493.8 ± 1 m/s
  mass density: 1001.56 ± 4 kg/m3
[2]; 288.15 K, m1 = 0.2371
  speed of sound: 1502.2 ± 1 m/s
  mass density: 1002.33 ± 4 kg/m3
[2]; 288.15 K, m1 = 0.479
  speed of sound: 1535.7 ± 1.1 m/s
  mass density: 1005.59 ± 4 kg/m3
[2]; 288.15 K, m1 = 0.7374
  speed of sound: 1568.8 ± 1.1 m/s
  mass density: 1009.02 ± 4 kg/m3
[2]; 298.15 K, m1 = 0.0344
  speed of sound: 1501.5 ± 1 m/s
  mass density: 997.479 ± 4 kg/m3
[2]; 298.15 K, m1 = 0.0526
  speed of sound: 1504 ± 1 m/s
  mass density: 997.71 ± 4 kg/m3
[2]; 298.15 K, m1 = 0.0926
  speed of sound: 1509.3 ± 1 m/s
  mass density: 998.209 ± 4 kg/m3
[2]; 298.15 K, m1 = 0.1181
  speed of sound: 1513.1 ± 1 m/s
  mass density: 998.524 ± 4 kg/m3
[2]; 298.15 K, m1 = 0.1806
  speed of sound: 1520.7 ± 1 m/s
  mass density: 999.3 ± 4 kg/m3
[2]; 298.15 K, m1 = 0.2371
  speed of sound: 1528 ± 1 m/s
  mass density: 999.998 ± 4 kg/m3
[2]; 298.15 K, m1 = 0.479
  speed of sound: 1557.1 ± 1.1 m/s
  mass density: 1002.98 ± 4 kg/m3
[2]; 298.15 K, m1 = 0.7374
  speed of sound: 1586 ± 1.1 m/s
  mass density: 1006.11 ± 4 kg/m3
[2]; 308.15 K, m1 = 0.0344
  speed of sound: 1523.9 ± 1 m/s
  mass density: 994.434 ± 4 kg/m3
[2]; 308.15 K, m1 = 0.0526
  speed of sound: 1526.1 ± 1 m/s
  mass density: 994.648 ± 4 kg/m3
[2]; 308.15 K, m1 = 0.0926
  speed of sound: 1530.8 ± 1 m/s
  mass density: 995.113 ± 4 kg/m3
[2]; 308.15 K, m1 = 0.1181
  speed of sound: 1534 ± 1 m/s
  mass density: 995.403 ± 4 kg/m3
[2]; 308.15 K, m1 = 0.1806
  speed of sound: 1540.7 ± 1 m/s
  mass density: 996.124 ± 4 kg/m3
[2]; 308.15 K, m1 = 0.2371
  speed of sound: 1547.1 ± 1 m/s
  mass density: 996.773 ± 4 kg/m3
[2]; 308.15 K, m1 = 0.479
  speed of sound: 1572.5 ± 1.1 m/s
  mass density: 999.537 ± 4 kg/m3
[2]; 308.15 K, m1 = 0.7374
  speed of sound: 1597.6 ± 1.1 m/s
  mass density: 1002.43 ± 4 kg/m3
[2]; 318.15 K, m1 = 0.0344
  speed of sound: 1540.1 ± 1 m/s
  mass density: 990.589 ± 4 kg/m3
[2]; 318.15 K, m1 = 0.0526
  speed of sound: 1542 ± 1 m/s
  mass density: 990.791 ± 4 kg/m3
[2]; 318.15 K, m1 = 0.0926
  speed of sound: 1546.1 ± 1 m/s
  mass density: 991.228 ± 4 kg/m3
[2]; 318.15 K, m1 = 0.1181
  speed of sound: 1548.9 ± 1 m/s
  mass density: 991.504 ± 4 kg/m3
[2]; 318.15 K, m1 = 0.1806
  speed of sound: 1554.8 ± 1 m/s
  mass density: 992.177 ± 4 kg/m3
[2]; 318.15 K, m1 = 0.2371
  speed of sound: 1560.5 ± 1 m/s
  mass density: 992.785 ± 4 kg/m3
[2]; 318.15 K, m1 = 0.479
  speed of sound: 1582.7 ± 1.1 m/s
  mass density: 995.37 ± 4 kg/m3
[2]; 318.15 K, m1 = 0.7374
  speed of sound: 1604.5 ± 1.1 m/s
  mass density: 998.079 ± 4 kg/m3
